Source: ChEMBL document CHEMBL1156650, “Furan oligomers and beta-carbolines from terrestrial streptomycetes” (J Nat Prod, 2008)
Activity calls are given as the source filed them.

Legend:
Format in all cases: functional, organism-based
Candida albicans = assay: Antimicrobial activity against Candida albicans by agar diffusion test
Chlorella sorokiniana = assay: Antimicrobial activity against Chlorella sorokiniana by agar diffusion test
Rhizomucor miehei = assay: Antimicrobial activity against Mucor miehei by agar diffusion test
Escherichia coli = assay: Antimicrobial activity against Escherichia coli by agar diffusion test
Bacillus subtilis = assay: Antimicrobial activity against Bacillus subtilis by agar diffusion test
Desmodesmus subspicatus = assay: Antimicrobial activity against Scenedesmus subspicatus by agar diffusion test
Chlorella vulgaris = assay: Antimicrobial activity against Chlorella vulgaris by agar diffusion test
Staphylococcus aureus = assay: Antimicrobial activity against Staphylococcus aureus by agar diffusion test
[1] = test system: Streptomyces viridochromogenes; assay: Antimicrobial activity against Streptomyces viridochromogenes Tu57 by agar diffusion test

Measured: Activity

CC1=C(O)C(=O)/C(=C\c2ccc(CO)o2)O1
inactive: all assays above

COC(OCc1ccc(C(OC)OCc2ccc(C=O)o2)o1)c1ccc(CO)o1 (configuration not stated)
inactive: all assays above

O=C(O)/C=C/C(=O)c1nccc2c1[nH]c1ccccc12
inactive: all assays above

CC(=O)OCc1ccc(COC(C)=O)o1
inactive: all assays above

OCc1ccc(-c2nccc3c2[nH]c2ccccc23)o1
inactive: all assays above

COC(OCc1ccc(C=O)o1)c1ccc(CO)o1 (configuration not stated)
inactive: all assays above

CC(=O)OCc1ccc(CO)o1
inactive: all assays above

COC(=O)/C=C/C(=O)c1nccc2c1[nH]c1ccccc12
inactive: all assays above
